Bounds are passed on as bounds.

Our source for the IC50 values is patent publication US10124004B2, “Pyrido[3,4-d]pyrimidine derivative and pharmaceutically acceptable salt thereof” (Teijin Pharma Limited, priority 2015, dated 2018).

Experiment [1] addresses T1, CDK2/cyclin A2 (Homo sapiens, UniProt P24941).
T1 construct: purchased Carna Biosciences, Inc. QS S Assist CDK2/Cyclin A2_FP Kit
Nature of the experiment: Human CDK2/cyclin A2 inhibitory activity (QS S Assist CDK2/Cyclin A2_FP Kit, IMAP fluorescence polarization). Type of experiment: biochemical. The conditions noted are these: 50% inhibitory concentration against CDK2/cyclin A2, given as class symbol. The method in brief:
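Kinase activity read as fluorescence polarization (485/535 nm) after phosphorylated fluorescent substrate binds IMAP reagent (30 min, RT, dark). Enzyme (2.5 ng/well) reacted 60 min at RT with ATP/substrate/metal in HEPES pH 7.4 buffer with Tween 20 and DTT; no-enzyme wells define 0% activity; IC50 by curve fit.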

Experiment [2] concerns the target T2, CDK4/cyclin D3 (Homo sapiens, UniProt P11802).
T2 construct: purchased Carna Biosciences, Inc. QS S Assist CDK4/Cyclin D3_FP Kit
The experiment can be described thus: Human CDK4/cyclin D3 inhibitory activity (QS S Assist CDK4/Cyclin D3_FP Kit, IMAP fluorescence polarization). Type of experiment: biochemical. The conditions noted are these: 50% inhibitory concentration against CDK4/cyclin D3, given as class symbol. The essentials:
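IMAP fluorescence polarization kit: CDK4/cyclin D3 at 12.5-25 ng/well with kit ATP/substrate/metal mix in 20 mM HEPES pH 7.4, 0.01% Tween20, 2 mM DTT, 45 min at room temperature. FP read at 485/535 nm after 30 min binding; IC50 from dose-response fit of percent inhibition versus enzyme and no-enzyme controls.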

T2 sequence (P11802 whole entry): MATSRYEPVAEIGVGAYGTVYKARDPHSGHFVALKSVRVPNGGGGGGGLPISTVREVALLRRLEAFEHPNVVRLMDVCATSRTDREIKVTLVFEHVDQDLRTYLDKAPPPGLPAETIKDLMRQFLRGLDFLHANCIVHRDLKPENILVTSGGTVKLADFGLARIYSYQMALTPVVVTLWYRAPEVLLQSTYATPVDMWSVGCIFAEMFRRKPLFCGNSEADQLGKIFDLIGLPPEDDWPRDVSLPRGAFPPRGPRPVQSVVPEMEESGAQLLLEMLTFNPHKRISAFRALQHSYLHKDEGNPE
T2 sequence (P30281 whole entry partner): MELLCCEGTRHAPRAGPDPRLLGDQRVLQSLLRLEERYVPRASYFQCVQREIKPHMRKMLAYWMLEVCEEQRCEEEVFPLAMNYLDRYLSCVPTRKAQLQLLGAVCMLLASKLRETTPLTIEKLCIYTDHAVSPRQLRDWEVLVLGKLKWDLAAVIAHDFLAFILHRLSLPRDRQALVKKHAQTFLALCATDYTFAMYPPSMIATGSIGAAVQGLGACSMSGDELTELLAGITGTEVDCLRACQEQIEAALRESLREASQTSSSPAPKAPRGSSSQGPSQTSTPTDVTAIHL

Take `C[C@@H](O)c1cc2cnc(Nc3ccc(N4CCNCC4)cn3)nc2c(N[C@@H]2CCOC2)n1` [Compound 995]: the IC50 is ≥ 100 nM in experiment [1] and < 10 nM in experiment [2].
For `CCNc1nc([C@@H](C)O)cc2cnc(Nc3ccc4c(n3)CCNC4)nc12` [Compound 996] the same measures were ≥ 100 nM and < 10 nM.
In the case of `C[C@@H](O)c1cc2cnc(Nc3ccc(CN4CCN(CCO)CC4)cn3)nc2c(NC2CC2)n1` [Compound 997], the half-inhibitory concentration (IC50) in experiment [1] was ≥ 100 nM; in experiment [2] it was < 10 nM.
For `C[C@@H](O)c1cc2cnc(Nc3ccc(CN4CCN(CCO)CC4)cn3)nc2c(NC2CCC2)n1` [Compound 998], in that order: ≥ 100 nM and < 10 nM.
For `C[C@@H](O)c1cc2cnc(Nc3ccc(CN4CCN(CCO)CC4)cn3)nc2c(NCC2CC2)n1` [Compound 999], in that order: ≥ 100 nM and < 10 nM.
For `CCCNc1nc([C@@H](C)O)cc2cnc(Nc3ccc(N4CCC(O)CC4)nn3)nc12` [Compound 1000] the same measures were ≥ 100 nM and 10 to 100 nM.
As for `CCNc1nc([C@@H](C)O)cc2cnc(Nc3ccc(N4CCNCC4)cn3)nc12` [Compound 1001], the 50% inhibitory concentration (IC50) in experiment [1] was ≥ 100 nM; in experiment [2], < 10 nM.
For `CCCNc1nc(C2(C)COC2)cc2cnc(Nc3ccc(N4CCNCC4)cn3)nc12` [Compound 1002] the same measures were ≥ 100 nM and < 10 nM.
For `CCCNc1nc(C2(C)COC2)cc2cnc(Nc3ccc(CN4CCNCC4)cn3)nc12` [Compound 1003] the same measures were ≥ 100 nM and < 10 nM.
Take `CCCNc1nc(C2CCOC2)cc2cnc(Nc3ccc(N4CCNCC4)cn3)nc12` (centres unmarked) [Compound 1004]: the 50% inhibitory concentration (IC50) in experiment [1] is ≥ 100 nM; in experiment [2] it was < 10 nM.
For `CCCNc1nc(C2CCOC2)cc2cnc(Nc3ccc(CN4CCNCC4)cn3)nc12` (centres unmarked) [Compound 1005], in that order: ≥ 100 nM and < 10 nM.
For `CC(C)Nc1nc(C2(C)COC2)cc2cnc(Nc3ccc(N4CCNCC4)cn3)nc12` [Compound 1006], in that order: ≥ 100 nM and < 10 nM.
For `CC(C)Nc1nc(C2CCOC2)cc2cnc(Nc3ccc(N4CCNCC4)cn3)nc12` (centres unmarked) [Compound 1007], in that order: ≥ 100 nM and < 10 nM.
As for `CCCNc1nc([C@@H](C)OC)cc2cnc(Nc3ccc(N4CC5(CC(NC)C5)C4)cn3)nc12` [Compound 1008], the values for the IC50 in experiment [1] and in experiment [2] were ≥ 100 nM and < 10 nM, respectively.
For `CNC1CC2(C1)CN(c1ccc(Nc3ncc4cc([C@@H](C)OC)nc(N[C@H]5CCCOC5)c4n3)nc1)C2` [Compound 1009], in that order: ≥ 100 nM and < 10 nM.
For `CC(C)Nc1nc(C2CCOC2)cc2cnc(Nc3ccc(CN4CCN(CCO)CC4)cn3)nc12` (centres unmarked) [Compound 1010], in that order: ≥ 100 nM and < 10 nM.
For `OCCN1CCN(Cc2ccc(Nc3ncc4cc(C5CCOC5)nc(N[C@H]5CCCOC5)c4n3)nc2)CC1` (some centres unmarked) [Compound 1011], in that order: ≥ 100 nM and < 10 nM.
For the compound `CC(C)Nc1nc(C2CCOC2)cc2cnc(Nc3ccc(CN4CCN(CC#N)CC4)cn3)nc12` (centres unmarked) [Compound 1012], the IC50 in experiment [1] was ≥ 100 nM; in experiment [2] it was < 10 nM.
Take `N#CCN1CCN(Cc2ccc(Nc3ncc4cc(C5CCOC5)nc(N[C@H]5CCCOC5)c4n3)nc2)CC1` (some centres unmarked) [Compound 1013]: the half-maximal inhibitory concentration (IC50) was ≥ 100 nM in experiment [1] and < 10 nM in experiment [2].
For `CC(C)Nc1nc(C2CCOC2)cc2cnc(Nc3ccc(CN4CCN(CC#N)CC4)cn3)nc12` (centres unmarked) [Compound 1014], in that order: ≥ 100 nM and < 10 nM.
Take `CC(C)Nc1nc([C@@H](C)O)cc2cnc(Nc3ccc(CN4CCN(CC#N)CC4)cn3)nc12` [Compound 1015]: the IC50 is ≥ 100 nM in experiment [1] and < 10 nM in experiment [2].
For `CC(C)Nc1nc([C@@H](C)O)cc2cnc(Nc3ccc(CN4CCC(CO)CC4)cn3)nc12` [Compound 1016], in that order: ≥ 100 nM and < 10 nM.
On to `CNC(=O)CN1CCN(Cc2ccc(Nc3ncc4cc([C@@H](C)O)nc(NC(C)C)c4n3)nc2)CC1` [Compound 1017], for which the IC50 in experiment [1] is ≥ 100 nM; in experiment [2] it was < 10 nM.
For `CC(C)Nc1nc([C@@H](C)O)cc2cnc(Nc3ccc(CN4CCN(CC(=O)N(C)C)CC4)cn3)nc12` [Compound 1018] the same measures were ≥ 100 nM and < 10 nM.
For `CC(C)Nc1nc([C@@H](C)O)cc2cnc(Nc3ccc(CN4CCC(O)CC4)cn3)nc12` [Compound 1019], in that order: ≥ 100 nM and < 10 nM.
For `C[C@@H](O)c1cc2cnc(Nc3ccc(CN4CCC(O)CC4)cn3)nc2c(NC(C)(C)C)n1` [Compound 1020] the same measures were ≥ 100 nM and < 10 nM.
For the compound `C[C@@H](O)c1cc2cnc(Nc3ccc(CN4CCC(CO)CC4)cn3)nc2c(NC(C)(C)C)n1` [Compound 1021], the concentration for half-maximal inhibition (IC50) is ≥ 100 nM in experiment [1] and < 10 nM in experiment [2].
For `CCCNc1nc([C@@H](C)O)cc2cnc(Nc3ccc(CN4CCC(O)CC4)cn3)nc12` [Compound 1022], in that order: ≥ 100 nM and < 10 nM.
Turning to `CC(C)CNc1nc([C@@H](C)O)cc2cnc(Nc3ccc(CN4CCC(O)CC4)cn3)nc12` [Compound 1023], the half-inhibitory concentration (IC50) in experiment [1] was ≥ 100 nM; in experiment [2], < 10 nM.
For `CC(C)CNc1nc([C@@H](C)O)cc2cnc(Nc3ccc(CN4CCC(CO)CC4)cn3)nc12` [Compound 1024], in that order: ≥ 100 nM and < 10 nM.
As for `CC(=O)c1cc2cnc(Nc3ccc4c(n3)CCNC4)nc2c(NC(C)C)n1` [Compound 1027], the half-maximal inhibitory concentration (IC50) is ≥ 100 nM in experiment [1] and < 10 nM in experiment [2].
For `CCCNc1nc(C(C)=O)cc2cnc(Nc3ccc(N4CCNCC4)cn3)nc12` [Compound 1028], in that order: ≥ 100 nM and 10 to 100 nM.
For `CC(=O)c1cc2cnc(Nc3ccc(N4CCNCCC4=O)cn3)nc2c(NC(C)C)n1` [Compound 1029] the same measures were ≥ 100 nM and < 10 nM.
Turning to `CCC(=O)c1cc2cnc(Nc3ccc(N4CCNCC4=O)cn3)nc2c(NC(C)C)n1` [Compound 1030], the IC50 in experiment [1] was ≥ 100 nM; in experiment [2] it was 10 to 100 nM.
With `CC(=O)c1nc(NC(C)C)c2nc(Nc3ccc(N4CCNCC4=O)cn3)ncc2c1Cl` [Compound 1031], the results for the IC50 in experiment [1] and in experiment [2] were ≥ 100 nM and < 10 nM, respectively.
As for `CC(C)Nc1nc([C@@H](C)O)cc2cnc(Nc3ccc(N4CC(C)NCC4=O)cn3)nc12` (some centres unmarked) [Compound 1032], the figures for the IC50 in experiment [1] and in experiment [2] were ≥ 100 nM and < 10 nM, respectively.
For `CC(C)Nc1nc([C@@H](C)O)cc2cnc(Nc3ccc(N4C(=O)CNCC4C)cn3)nc12` (some centres unmarked) [Compound 1033], in that order: ≥ 100 nM and < 10 nM.
For `CCC(O)c1cc2cnc(Nc3ccc(N4CCNCC4)cn3)nc2c(NC(C)C)n1` (centres unmarked) [Compound 1034] the same measures were ≥ 100 nM and < 10 nM.
For the compound `CCC(O)c1cc2cnc(Nc3ccc(N4CCNCC4)cn3)nc2c(NC(C)C)n1` (centres unmarked) [Compound 1035], the IC50 in experiment [1] was ≥ 100 nM; in experiment [2] it was < 10 nM.
For `CCC(O)c1cc2cnc(Nc3ccc(N4CCNCC4=O)cn3)nc2c(NC(C)C)n1` (centres unmarked) [Compound 1037] the same measures were ≥ 100 nM and 10 to 100 nM.
